Tests used:
Leishmania donovani = experiment: Antiprotozoal activity against Leishmania donovani MHOM/ET/L82/LV9; format: functional, organism-based
[1] = tested on: Trypanosoma brucei brucei; experiment: Antiprotozoal activity against Trypanosoma brucei brucei GVR35; format: functional
Trichomonas vaginalis = experiment: Antiprotozoal activity against Trichomonas vaginalis CMP; format: functional, organism-based

SMILES | IC50 (Leishmania donovani) [µM] | IC50 (Trichomonas vaginalis) [µM] | MAC [1] [µM]
CCn1c2ccccc2c2cc(N(C(=O)c3ccc4nc(-c5ccccc5)c(-c5ccccc5)nc4c3)C(=O)c3ccc4nc(-c5ccccc5)c(-c5ccccc5)nc4c3)ccc21 | > 300 | > 300 | >300
Cc1nc2ccc(NC(=O)C34CC5CC(CC(C5)C3)C4)cc2nc1C | > 300 | > 300 | >300
COc1cc2oc3ccccc3c2cc1N(C(=O)c1ccc2nc(-c3ccccc3)c(-c3ccccc3)nc2c1)C(=O)c1ccc2nc(-c3ccccc3)c(-c3ccccc3)nc2c1 | > 300 | > 300 | >300
O=[N+]([O-])c1ccc(CNc2ccc3nccnc3c2)cc1 | > 300 | 191 | >300
O=C(Nc1ccc2nccnc2c1)c1ccc(Br)o1 | > 300 | > 300 | >300
CCc1ccc(OCc2ccccc2C(=O)Nc2ccc3nc(-c4ccccc4)c(-c4ccccc4)nc3c2)cc1 | > 300 | > 300 | >300
CCCCCCCCCCCCC(=O)Nc1ccc2nccnc2c1Br | > 300 | > 300 | >300
CCCCCCCCCCCCCCCC(=O)Nc1ccc2nc(C)c(C)nc2c1 | > 300 | > 300 | >300
CCn1c2ccccc2c2cc(NC(=O)c3ccc4nccnc4c3)ccc21 | > 300 | > 300 | 200
O=C(Nc1ccc2nccnc2c1Br)c1ccc2ccccc2n1 | > 300 | > 300 | >300
COc1cc2oc3ccccc3c2cc1NC(=O)c1ccc2nc(-c3ccccc3)c(-c3ccccc3)nc2c1 | > 300 | > 300 | >300
COc1cc2oc3ccccc3c2cc1NC(=O)c1ccc2nccnc2c1 | > 300 | > 300 | >300
CCc1ccc(OCc2ccccc2NC(=O)c2ccc3nc(-c4ccccc4)c(-c4ccccc4)nc3c2)cc1 | > 300 | > 300 | >300
Cc1ncc([N+](=O)[O-])n1CCO [METRONIDAZOLE] | – | 5.8 | –
CCc1ccc(OCc2ccccc2NC(=O)c2ccc3nc(C)c(C)nc3c2)cc1 | > 300 | > 300 | >300
CCn1c2ccccc2c2cc(NC(=O)c3ccc4nc(-c5ccccc5)c(-c5ccccc5)nc4c3)ccc21 | > 300 | > 300 | >300
CCCCCCC(=O)Nc1ccc2nccnc2c1Br | > 300 | > 300 | >300
CCc1ccc(OCc2ccccc2NC(=O)c2ccc3nc(C)cnc3c2)cc1 | > 300 | > 300 | >300
Nc1nc(N)nc(Nc2ccc([As]3SCC(CO)S3)cc2)n1 (stereo not given) [MELARSOPROL] | – | – | 0.1
O=C(Nc1cccc2c1oc1ccccc12)c1ccc2nc(-c3ccccc3)c(-c3ccccc3)nc2c1 | > 300 | > 300 | >300
CCCCCCCCCCCCCCCC(=O)Nc1ccc2nccnc2c1Br | > 300 | > 300 | >300
O=C(Nc1ccc2nccnc2c1Br)c1ccc(C(=O)c2ccccc2)cc1 | > 300 | > 300 | >300

Further lines, with some results ahead:

IC50 (Leishmania donovani) [µM] | IC50 (Trichomonas vaginalis) [µM] | SMILES | MAC [1] [µM]
34 | > 300 | c1ccc2c(CNc3ccc4nccnc4c3)ccnc2c1 | >300
7.3 | – | CCCCCCCCCCCCCCCCOP(=O)([O-])OCC[N+](C)(C)C [MILTEFOSINE] | –
92.4 | 264 | c1ccc(CNc2ccc3nccnc3c2)cc1 | >300
18.5 | 126 | CCc1ccc(OCc2ccccc2C(=O)Nc2ccc3nccnc3c2)cc1 | 150
8.2 | > 300 | CCc1ccc(OCc2ccccc2C(=O)Nc2ccc3nc(C)c(C)nc3c2)cc1 | 200
18.4 | > 300 | CCc1ccc(OCc2ccccc2NC(=O)c2ccc3nccnc3c2)cc1 | 200
12.5 | > 300 | CCc1ccc(OCc2ccccc2C(=O)Nc2ccc3nc(C)cnc3c2)cc1 | 200
79.5 | > 300 | c1cnc2cc(NCc3ccc4c(c3)OCO4)ccc2n1 | >300
117 | > 300 | CCCCCCC(=O)Nc1ccc2nccnc2c1 | >300
46.3 | 243 | CCCCCNc1ccc2nccnc2c1 | >300

Source: ChEMBL document CHEMBL1149446, “Synthesis and antiprotozoal activity of some new synthetic substituted quinoxalines” (Bioorg Med Chem Lett, 2006)
